In patent publication US6403580B1, “Quinazolines, pharmaceutical compositions containing these compounds, their use and processes for preparing them” (Boehringer Ingelheim Pharma KG, priority 2000, dated 2002):

How the values were obtained:
[1] = biological target: T1, human EGF-R (Homo sapiens, UniProt P00533); assay: Inhibition of EGF-dependent proliferation of F/L-HERc cells; type: cell-based; details: F/L-HERc cells (murine IL-3-dependent line expressing human EGF-R), stimulated with EGF 20 ng/ml, 48 hours, Cell Titer 96 assay
T1 construct: expressed in transfected cells; host or cells: F/L-HERc cells (murine IL-3-dependent FDC-P1 line, transduced with retroviral vector LXSN carrying human EGF-R cDNA; packaging line GP+E86)
T1 sequence (P00533 25-1210): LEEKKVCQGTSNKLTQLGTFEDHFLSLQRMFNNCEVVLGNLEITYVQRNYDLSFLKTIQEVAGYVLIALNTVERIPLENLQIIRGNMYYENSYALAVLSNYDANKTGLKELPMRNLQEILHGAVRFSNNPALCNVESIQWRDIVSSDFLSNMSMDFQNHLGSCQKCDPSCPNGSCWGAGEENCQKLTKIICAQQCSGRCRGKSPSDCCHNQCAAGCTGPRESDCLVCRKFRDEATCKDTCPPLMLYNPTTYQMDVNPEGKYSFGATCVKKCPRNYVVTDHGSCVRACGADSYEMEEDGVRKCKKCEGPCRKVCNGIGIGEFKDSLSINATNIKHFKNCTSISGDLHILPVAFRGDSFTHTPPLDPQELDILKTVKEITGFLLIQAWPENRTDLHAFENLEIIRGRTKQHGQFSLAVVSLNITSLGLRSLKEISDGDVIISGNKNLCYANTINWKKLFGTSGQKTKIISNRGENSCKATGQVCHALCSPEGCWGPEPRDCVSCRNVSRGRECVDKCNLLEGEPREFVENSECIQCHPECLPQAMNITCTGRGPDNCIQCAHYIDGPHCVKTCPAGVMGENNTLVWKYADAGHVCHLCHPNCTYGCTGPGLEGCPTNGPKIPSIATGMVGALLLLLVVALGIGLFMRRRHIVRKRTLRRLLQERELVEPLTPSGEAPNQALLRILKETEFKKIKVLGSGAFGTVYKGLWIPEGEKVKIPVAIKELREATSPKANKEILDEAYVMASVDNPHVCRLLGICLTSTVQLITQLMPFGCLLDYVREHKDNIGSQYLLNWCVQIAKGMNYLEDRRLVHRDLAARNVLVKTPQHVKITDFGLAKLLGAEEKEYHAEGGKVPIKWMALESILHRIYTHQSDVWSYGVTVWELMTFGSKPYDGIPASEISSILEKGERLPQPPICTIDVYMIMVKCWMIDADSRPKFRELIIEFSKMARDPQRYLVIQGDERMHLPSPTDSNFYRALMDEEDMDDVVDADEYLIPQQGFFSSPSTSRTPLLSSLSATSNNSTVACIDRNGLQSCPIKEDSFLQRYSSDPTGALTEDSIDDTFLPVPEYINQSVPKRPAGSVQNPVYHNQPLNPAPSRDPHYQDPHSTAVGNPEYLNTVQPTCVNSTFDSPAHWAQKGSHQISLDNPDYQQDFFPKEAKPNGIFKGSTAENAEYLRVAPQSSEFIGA
Description: A cell line of murine origin dependent on interleukin-3-(IL-3) which was genetically modified to express functional human EGF-R was used here. The proliferation of these cells known as F/L-HERc can therefore be stimulated either by murine IL-3 or by EGF (cf. von Rüden, T. et al. in EMBO J . 7, 2749-2756 (1988) and Pierce, J. H. et al. in Science 239, 628-631 (1988)).
The starting material used for the F/L-HERc cells was the cell line FDC-P1, the production of which has been described by Dexter, T. M. et al. in J. Exp. Med. 152, 1036-1047 (1980). Alternatively, however, other growth-factor-dependent cells may also be used (cf. for example Pierce, J. H. et al. in Science 239, 628-631 (1988), Shibuya, H. et al. in Cell 70, 57-67 (1992) and Alexander, W. S. et al. in EMBO J. 10, 3683-3691 (1991)). […]
In order to determine the inhibitory activity of the compounds according to the invention the relative cell number was measured in O.D. units using the Cell Titer 96™ Aqueous Non-Radioactive Cell Proliferation Assay (Promega). […]

melting point [°C] | IC50 [1] [nM] | Structure (SMILES)
195 to 199 | – | C=CC(=O)Nc1cc2c(Nc3ccc(F)c(Cl)c3)ncnc2cc1OCCN(C)C1COC(=O)C1 (stereo not shown) [Example 1(11), 4-[(3-chloro-4-fluorophenyl)amino]-7-{2-[N-(2-oxo-tetrahydrofuran4-yl)-N-methyl-amino]-ethoxy}-6-[(vinylcarbonyl)amino]-quinazoline]
110 to 112 | – | C=CC(=O)Nc1cc2c(Nc3ccc(F)c(Cl)c3)ncnc2cc1OCCCCN1CC(=O)OC(C)(C)C1 [Example 1(15), 4-[(3-chloro-4-fluorophenyl)amino]-7-[4-(2,2-dimethyl-6-oxo-morpholin-4-yl)-butyloxy]-6-[(vinylcarbonyl)amino]-quinazoline]
182.5 to 184 | – | C=CC(=O)Nc1cc2c(Nc3ccc(F)c(Cl)c3)ncnc2cc1OCCN1CC(=O)OC(C)(C)C1 [Example 1(1), 4-[(3-chloro-4-fluoro-phenyl)amino]-7-[2-(2,2-dimethyl-6-oxo-morpholin-4-yl)-ethoxy]-6-[(vinylcarbonyl)amino]-quinazoline]
– | 0.4 | C=CC(=O)Nc1cc2c(N[C@H](C)c3ccccc3)ncnc2cc1OCCN1CC(=O)OC(C)(C)C1 [1(2), 4-[(R)-(1-phenyl-ethyl)amino]-7-[2-(2,2-dimethyl-6-oxo-morpholin-4-yl)-ethoxy]-6-[(vinylcarbonyl)amino]-quinazoline]
